≈ marks a conversion by molar mass, not a printed value. Counter-ions that a name gives are not always drawn. Like-named read-outs stand apart in the source and are kept apart here.
Assay: Determination of drug solubility in aqueous and organic solvent;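 further: solid drug suspended at 50 mg/mL nominal in each solvent, vortexed and sonicated, then dissolved concentration in filtered supernatant quantified by HPLC against a calibration curve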
Assay type: physicochemical
Conditions: for solubility: thermodynamic from solid
[1] = organic solvent or mixture, Table 3A, DMSO, read-out: Solubility DMSO
[2] = Table 3A, water, drug added to 50 mg/mL, read-out: Solubility Water
[3] = organic solvent or mixture, Table 3A, DCM, read-out: Solubility DCM
[4] = organic solvent or mixture, Table 3B, DMSO, read-out: Solubility DMSO
[5] = Table 3B, water, drug added to 50 mg/mL, read-out: Solubility Water

Protocol: For each test, approximately 5-10 mg was transferred to a 10 mL glass vial. Aqueous or organic solvent was added to each vial to achieve an overall concentration of 50 mg/mL. After vortexing aggressively for 2-3 minutes and sonicating in a bath sonicator for 5 minutes, undissolved drug was spun down at 1200 rpm for 5 minutes to generate a pellet. The supernatant was collected and filtered through a 0.2 μm nylon syringe filter into HPLC vials for drug content analysis. Drug concentration was determined by comparing against a standard calibration curve.

SMILES | solubility [1] [µg/mL] | solubility [2] [µg/mL] | other results
CCN(CC)CCNC(=O)c1c(C)[nH]c(/C=C2\C(=O)Nc3ccc(N)cc32)c1C [5-Amino Sunitinib, 5-[5-Amino-2-oxo-1,2-dihydro-indol-(3Z)-ylidenemethyl]-2,4-dimethyl-1H-pyrrole-3-carboxylic acid (2-diethylamino-ethyl)-amide, reference compound] | > 50000 | < 1000 | 
CCN[C@H]1CN(CCCOC)S(=O)(=O)c2sc(S(N)(=O)=O)cc21 [Brinzolamide, reference compound] | > 50000 | < 1000 | Solubility DCM (Table 3B, DCM): <7500 µg/mL; Solubility DMSO (Table 3B, DMSO): >50000 µg/mL; Solubility Water (Table 3B, water, drug added to 50 mg/mL): <1000 µg/mL; solubility [3]: < 7500 µg/mL
CCCCCCCCCCCCCCCCCC(=O)O[C@@H](C)C(=O)O[C@@H](C)C(=O)O[C@@H](C)C(=O)O[C@@H](C)C(=O)NS(=O)(=O)c1cc2c(s1)S(=O)(=O)C(C)CC2NCC (stereo partly drawn) [Compound 12-3, Octadecanoic acid (S)-1-((S)-1-{(S)-1-[(S)-2-(4-ethylamino-6-methyl-7,7-dioxo-4,5,6,7-tetrahydro-7λ*6*-thieno[2,3-b]thiopyran-2-sulfonylamino)-1-methyl-2-oxo-ethoxycarbonyl]-ethoxycarbonyl}-ethoxycarbonyl)-ethyl ester] | > 50000 | < 100 | solubility [3]: > 50000 µg/mL
CCCCCCCCCCCCCCCCCC(=O)O[C@@H](C)C(=O)O[C@@H](C)C(=O)O[C@@H](C)C(=O)O[C@@H](C)C(=O)NS(=O)(=O)c1cc2c(s1)S(=O)(=O)N(CCCOC)CC2NCC (stereo partly drawn) [Compound 15-2, Octadecanoic acid (S)-1-[(S)-1-((S)-1-{(S)-2-[4-ethylamino-2-(3-methoxy-propyl)-1,1-dioxo-1,2,3,4-tetrahydro-1λ*6*-thieno[3,2-e][1,2]thiazine-6-sulfonylamino]-1-methyl-2-oxo-ethoxycarbonyl}-ethoxycarbonyl)-ethoxycarbonyl]-ethyl ester] | > 50000 | < 1000 | 
CC(=O)O[C@@H](C)C(=O)O[C@@H](C)C(=O)N1CCN=C1Nc1ccc2nccnc2c1Br [Compound 25-2, (S)-2-Acetoxy-propionic acid (S)-2-[2-(5-bromo-quinoxalin-6-ylamino)-4,5-dihydro-imidazol-1-yl]-1-methyl-2-oxo-ethyl ester] | > 50000 | < 1000 | 
CC(=O)O[C@@H](C)C(=O)O[C@@H](C)C(=O)O[C@@H](C)C(=O)N1CCN=C1Nc1ccc2nccnc2c1Br [Compound 26-2, (S)-2-((S)-2-Acetoxy-propionyloxy)-propionic acid (S)-2-[2-(5-bromo-quinoxalin-6-ylamino)-4,5-dihydro-imidazol-1-yl]-1-methyl-2-oxo-ethyl ester] | > 50000 | < 1000 | 
CC(=O)O[C@@H](C)C(=O)O[C@@H](C)C(=O)O[C@@H](C)C(=O)O[C@@H](C)C(=O)N1CCN=C1Nc1ccc2nccnc2c1Br [Compound 27-2, (S)-2-[(S)-2-((S)-2-Acetoxy-propionyloxy)-propionyloxy]-propionic acid (S)-2-[2-(5-bromo-quinoxalin-6-ylamino)-4,5-dihydro-imidazol-1-yl]-1-methyl-2-oxo-ethyl ester] | > 50000 | < 1000 | 
CCCCCCCCCCCCCCCCCC(=O)O[C@@H](C)C(=O)O[C@@H](C)C(=O)O[C@@H](C)C(=O)O[C@@H](C)C(=O)N1CCN=C1Nc1ccc2nccnc2c1Br [Compound 29-2, Octadecanoic acid (S)-1-[(S)-1-((S)-1-{(S)-2-[2-(5-bromo-quinoxalin-6-ylamino)-4,5-dihydro-imidazol-1-yl]-1-methyl-2-oxo-ethoxycarbonyl}-ethoxycarbonyl)-ethoxycarbonyl]-ethyl ester] | > 50000 | < 1000 | 
CC(=O)O[C@@H](CNC(C)(C)C)COc1nsnc1N1CCOCC1.O=C(O)/C=C\C(=O)O [Compound 35-4, Acetic acid (S)-1-(tert-butylamino-methyl)-2-(4-morpholin-4-yl-[1,2,5]thiadiazol-3-yloxy)-ethyl ester maleate] | > 50000 | < 1000 | 
CC(C)(C)NC[C@@H](COc1nsnc1N1CCOCC1)OC(=O)OC(C)(C)C [Compound 36-2, Carbonic acid tert-butyl ester (S)-1-(tert-butylamino-methyl)-2-(4-morpholin-4-yl-[1,2,5]thiadiazol-3-yloxy)-ethyl ester] | > 50000 | < 1000 | 
CC(=O)N(C[C@@H](COc1nsnc1N1CCOCC1)OC(=O)OC(C)(C)C)C(C)(C)C [Compound 37-2, Timolol-O-Boc-N-acetate] | > 50000 | < 1000 | 
CCCCCCCCCCCCCCCCCC(=O)O[C@@H](C)C(=O)O[C@@H](C)C(=O)O[C@@H](C)C(=O)O[C@@H](C)C(=O)O[C@@H](C)C(=O)O[C@@H](C)C(=O)O[C@@H](CNC(C)(C)C)COc1nsnc1N1CCOCC1 [Compound 42-2, Octadecanoic acid (S)-1-((S)-1-{(S)-1-[(S)-1-((S)-1-{(S)-1-[(S)-1-(tert-butylamino-methyl)-2-(4-morpholin-4-yl-[1,2,5]thiadiazol-3-yloxy)-ethoxycarbonyl]-ethoxycarbonyl}-ethoxycarbonyl)-ethoxycarbonyl]-ethoxycarbonyl}-ethoxycarbonyl)-ethyl ester maleate] | > 50000 | < 1000 | 
CCCCCCCCCCCCCCCCCC(=O)O[C@@H](C)C(=O)O[C@@H](C)C(=O)O[C@@H](C)C(=O)O[C@@H](C)C(=O)O[C@@H](C)C(=O)O[C@@H](C)C(=O)O[C@@H](CNC(C)(C)C)COc1nsnc1N1CCOCC1.Cl [Compound 43-1, Octadecanoic acid (5)-1-((S)-1-{(S)-1-[(S)-1-((S)-1-{(S)-1-[(S)-1-(tert-butylamino-methyl)-2-(4-morpholin-4-yl-[1,2,5]thiadiazol-3-yloxy)-ethoxycarbonyl]-ethoxycarbonyl}-ethoxycarbonyl)-ethoxycarbonyl]-ethoxycarbonyl}-ethoxycarbonyl)-ethyl ester hydrochloride] |  |  | Solubility DMSO (Table 3A, DMSO): >50000 µg/mL; Solubility Water (Table 3A, water, drug added to 50 mg/mL): 6250 µg/mL; aqueous solubility (aqueous solution): 6250 µg/mL
CC(=O)O[C@H](C)C(=O)O[C@@H](CNC(C)(C)C)COc1nsnc1N1CCOCC1.O=C(O)/C=C\C(=O)O [Compound 44-2, Timolol-acetyl PLA (n=1) maleate] | > 50000 | < 1000 | 
CC/C=C\C/C=C\C/C=C\C/C=C\C/C=C\C/C=C\CCC(=O)O[C@@H](CNC(C)(C)C)COc1nsnc1N1CCOCC1.O=C(O)/C=C\C(=O)O [Compound 53-3, (4Z,7Z,10Z,13Z,16Z,19Z)-Docosa-4,7,10,13,16,19-hexaenoic acid (S)-1-(tert-butylamino-methyl)-2-(4-morpholin-4-yl-[1,2,5]thiadiazol-3-yloxy)-ethylester maleate] |  |  | solubility [4]: > 100000 µg/mL; solubility [5]: < 1000 µg/mL
CCCCCCCCCCCCCCCCCC(=O)O[C@@H](C)C(=O)O[C@@H](C)C(=O)O[C@H](COc1nsnc1N1CCOCC1)CN(C(C)=O)C(C)(C)C [Compound 66-1, N-Acyl-Timolol-PLA (n = 2) Stearate] |  |  | solubility [4]: > 100000 µg/mL; solubility [5]: < 1000 µg/mL
CCCCCCCCCCCCCCCCCC(=O)O[C@@H](C)C(=O)O[C@@H](C)C(=O)O[C@@H](C)C(=O)O[C@@H](C)C(=O)O[C@H](COc1nsnc1N1CCOCC1)CN(C(C)=O)C(C)(C)C [Compound 67-1, N-Acyl-Timolol-PLA (n = 4) Stearate] |  |  | solubility [4]: 70000 µg/mL (≈ 76.7 mM); solubility [5]: < 1000 µg/mL
